Test system: Splenocytes of BALB/c mice
Experiment: Proliferation of splenocytes stimulated with T cell and B cell mitogens (ConA, LPS)
Type: cell-based
Description: Splenocytes of BALB/c mice were cultured (5×10^4 cells/well) in 200 μl RPMI/FCS-10% medium and stimulated with different concentrations of either ConA (1 μg/ml and 2 μg/ml) or LPS (5 μg/ml and 10 μg/ml) and Caerulomycin A (0.0003-0.1 μg/ml). The control cultures consisting of splenocytes incubated with medium alone, ConA and DMSO. After 48 h, the cultures were pulsed with 0.5 μCi of [^3H]-thymidine and harvested 14 h later by automatic cell harvester (Skatron, Tranby, Norway). Radioactivity incorporated was measured by liquid scintillation counting and data are expressed as mean counts per minute (cpm).
Examples establishing the role of Caerulomycin A [isolated from a novel species of Actinoalloteichus] in inducing immunosuppression based on the following: • Splenocytes of BALB/c mice were stimulated with either ConA (1 μg/ml and 2 μg/ml) or LPS (5 μg/ml and 10 μg/ml) and were cultured with different concentrations of Caerulomycin A (0.0003-0.1 μg/ml). After 48 h, the cultures were pulsed with 0.5 μCi of [^3H]-thymidine and harvested 14 h later by automatic cell harvester. Radioactivity incorporated was measured by liquid scintillation counting. • Antigen ovalbumin (100 μg/ml) emulsified in Freund's complete adjuvant was injected in a group consisting of 5 BALB/c mice. […] Radioactivity incorporated was measured by liquid scintillation. The culture supernatants were collected after 48 h and cytokines were measured by ELISA. • Immunosuppressive effect of different doses of Caerulomycin A was monitored on naïve CD4^+ T cells, antigen reactive CD4^+ T cells, Th2 clone and Th1 hybridoma. […] Radioactivity incorporated was measured by liquid scintillation. • Immunosuppressive effect of Caerulomycin A on MLR reaction. […] After 4 days, the cultures were pulsed with 1 μCi of [^3H]-thymidine and harvested 16 h later and radioactivity incorporated was measured by liquid scintillation counting. • In vivo immunosuppressive effect of Caerulomycin A on the proliferation of T cells. […] CD28 and CTLA-4 expression was detected by flowcytometry on the surface of resting and ConA activated CD4^+ T cells. […]

In the case of `COc1cc(/C=N/O)nc(-c2ccccn2)c1` [Caerulomycin A, (E)-4-methoxy-2,2′-bipyridine-6-carbaldehyde oxime], the “proliferation of mitogen stimulated cells at the effective doses” value (Caerulomycin A 0.05 and 0.1 μg/ml) is reported as “potent inhibition”, the “proliferation of ConA stimulated cells” value (ConA 1.0 and 2.0 μg/ml, Caerulomycin A 0.0003-0.1 μg/ml, 48 h) is reported as “significant decrease” and the “proliferation of cells stimulated with LPS” value (LPS 5 and 10 μg/ml, Caerulomycin A 0.0003-0.1 μg/ml, 48 h) is reported as “suppress the proliferation”.
